These results are taken from patent US8822146B2, “Derivatization of biomolecules by covalent coupling of non-cofactor compounds using methyltransferases” (Vilnius University, priority 2009, dated 2014).

One test concerns the target M.Hhal (Haemophilus parahaemolyticus, UniProt P05102). The experiment in a line: DNA protection assay: pUC-618 fragment modified with aldehyde in the presence of M.Hhal, then R.Hin6I cleavage. The class given is biochemical. Particulars: 800 mM acetaldehyde, 50 nM M.Hhal, 100 nM pUC-618, 1 hour, room temperature. The protocol: A 618 bp fragment of plasmid […] (pUC-618), which contains a single target site for M.Hhal, was used as a DNA substrate. pUC-618 was prepared by PCR amplification of the pUC19 template (Fermentas Life Sciences) using Dir (5′-[…]) (SEQ ID No:11) and Rev (5′-[…]) (SEQ ID No:12) primers and Taq DNA Polymerase (Fermentas Life Sciences). The PCR fragment was purified by Sephacryl S-400 (GE Healthcare) following the precipitation by ethanol. pUC-618 contains a single target site for M.Hhal.

The target in another test is M.Sssl (Spiroplasma monobiae, UniProt P15840). The conditions noted are these: 13 mM formaldehyde, 500 nM M.Sssl, 100 nM pUC-618, 1 hour, room temperature.
The next test deals with M.Hpall (Haemophilus parainfluenzae, UniProt P15446). Particulars: 13 mM formaldehyde, 1000 nM M.Hpall, 100 nM pUC-618, 1 hour, room temperature.
Chain of M.Hpall (P15446 whole entry): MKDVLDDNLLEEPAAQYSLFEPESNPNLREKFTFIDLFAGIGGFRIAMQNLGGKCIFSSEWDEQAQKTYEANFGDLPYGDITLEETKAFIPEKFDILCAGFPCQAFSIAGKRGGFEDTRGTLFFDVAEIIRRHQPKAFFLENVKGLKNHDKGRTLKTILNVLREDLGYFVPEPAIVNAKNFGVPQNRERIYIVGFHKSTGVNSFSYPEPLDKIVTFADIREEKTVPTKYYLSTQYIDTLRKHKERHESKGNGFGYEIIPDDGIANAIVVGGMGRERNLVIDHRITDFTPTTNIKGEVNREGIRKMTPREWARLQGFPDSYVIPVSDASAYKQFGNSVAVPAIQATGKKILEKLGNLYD

Chain of M.Sssl (P15840 whole entry): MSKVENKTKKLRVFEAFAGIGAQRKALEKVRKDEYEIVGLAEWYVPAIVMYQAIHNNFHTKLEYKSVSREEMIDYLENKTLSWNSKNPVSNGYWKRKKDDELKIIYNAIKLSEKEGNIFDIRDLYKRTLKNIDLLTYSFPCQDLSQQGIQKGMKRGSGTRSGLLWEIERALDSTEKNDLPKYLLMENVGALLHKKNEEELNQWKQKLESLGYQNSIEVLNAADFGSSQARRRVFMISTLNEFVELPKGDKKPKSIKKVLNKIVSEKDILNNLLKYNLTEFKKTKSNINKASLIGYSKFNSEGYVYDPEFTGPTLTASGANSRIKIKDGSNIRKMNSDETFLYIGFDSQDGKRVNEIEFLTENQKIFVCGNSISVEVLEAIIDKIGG
Chain of M.Hhal (P05102 whole entry, the tested form may be a part): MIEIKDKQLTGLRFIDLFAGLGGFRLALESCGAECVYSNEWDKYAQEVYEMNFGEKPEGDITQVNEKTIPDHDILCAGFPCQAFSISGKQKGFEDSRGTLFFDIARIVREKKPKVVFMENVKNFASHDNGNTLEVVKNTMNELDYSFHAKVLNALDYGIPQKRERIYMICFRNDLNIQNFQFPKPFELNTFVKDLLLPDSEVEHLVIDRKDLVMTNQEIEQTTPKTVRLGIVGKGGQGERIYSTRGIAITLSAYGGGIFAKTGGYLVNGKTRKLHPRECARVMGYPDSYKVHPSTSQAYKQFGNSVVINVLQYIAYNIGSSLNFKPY

Regarding `CC=O` [acetaldehyde], at M.Hhal, the “resistance of the GCGC site to R.Hin6I cleavage” value is given as “nearly fully”.
Consider `C=O` [formaldehyde], for which the “resistance of the GCGC site to cleavage with R.Hin6I” value at M.Sssl is on record as 70%. For the same molecule, the “resistance of the CCGG sites to cleavage with R.Hpall” value on M.Hpall is 70%.
